Here are results for five molecules from article PMC7356587, “Efficacy, Stability, and Safety Evaluation of New Polyphenolic Xanthones Towards Identification of Bioactive Compounds to Fight Skin Photoaging” (Molecules, 2020).

Marks after values point to notes of the source that are not given here.

One data set is described as follows: DPPH reduction assay. The settings on record: for IC50: DPPH reduction, 60 min incubation. The method, then: The reduction of the stable DPPH free radical was measured by monitoring the change in absorbance at 517 nm. These experiments were made in a 96-well microplate. […] In each experiment, the compounds were tested in the concentration range 0.7812 μM to 50 μM, in triplicate. For each sample concentration, a blank with ethanol 70%, instead of DPPH was made. Ascorbic acid was used as a positive control and tested in the same conditions. Blanks containing only ethanol 70% and control containing DPPH in ethanol 70% (190 μM) were used. The absorbance at 517 nm was measured in a microplate reader BioTek^TM Synergy HT (BioTeck Instruments, Vermont, USA) after 60 min of incubation in the dark with a temperature-controlled holder at 25 °C. The microplate was shaken before each reading.
The scavenging percentage of DPPH was calculated using the following equation:(1) %scavenging of DPPH=100×(1−Abssample+DPPH−Abssample blank/AbsDPPH−AbsEtOH)
The IC50 value for each sample and for the ascorbic acid was obtained by linear regression.

Another data set deals with collagenase. The experiment in a line: Collagenase inhibition assay. It is filed as biochemical. The method, then: An adaptation of the method of Moore and Stein [40] with modifications by Mandl et al. was used to determine anticollagenase activity. To 2 mL test tubes was added: 25 μL of collagenase solution (0.8 U/mL), 25 μL TES buffer (50 mM) with 0.36 mM calcium chloride (pH 7.4) and 50 μL of test sample or the reference compound EDTA (with concentrations ranging between 9.4 and 150 μM). The tubes were incubated in a water bath at 37 °C for 20 min. Thereafter, 50 μL FALGPA (1 mM) solution was added to the tubes and incubated further for 60 min at 37 °C. To all tubes, 200 μL of a solution containing equal volumes of a 1.6 mg/mLTin chloride (II) solution in 200 mM citrate buffer (pH 5) and 50 mg/mL ninhydrin solution in DMSO was added. All tubes were placed in a water bath (100 °C) for 5 min and left to cool to room temperature before adding 200 μL of 50% isopropanol to each tube. Contents in the tubes were then transferred to respective wells in 96-well plates.

Data set [1] can be described thus: UV/Vis absorption spectra. The settings on record: UVB range 280–320 nm. It is filed as physicochemical. The method, then: (§1) The ultraviolet/visible (UV/Vis) spectra were recorded in methanol using a path length of 1 cm, at room temperature on a Varian CARY100 spectrophotometer (Agilent Technologies, Santa Clara, California, United States) from a range of 200 nm to 500 nm (software CaryWin UV, v. 3.0). The metal-chelating effect was evaluated by described procedures with stock solutions (1.0 × 10^−4 M) in methanol. Iron (III) and copper (II) solutions were prepared in a concentration of 1.0 × 10^−3 M from FeCl3 and CuCl2 in deionized water.

For the next data set, the system named is HaCaT cells. The experiment in a line: Phototoxicity evaluation, HaCaT NRU assay. The format is cell-based, human. On the procedure:
The HaCaT cells were maintained at 37 °C in a humidified atmosphere of 95% air and 5% CO2 in the incubator in dulbecco’s modified eagle’s medium (DMEM) with 10% fetal bovine serum (FBS) and 1% antibiotics. Using an inverted microscope, cell confluence was observed and if the cells reached 70–80% confluence, subculture was done to prevent cell death. For this purpose, the culture medium was aspirated and the cells were washed with dulbecco’s phosphate buffered saline (DPBS), 2 mL of trypsin-EDTA were added and incubated for 5–8 min at 37 °C in a 5% CO2 atmosphere. After cell detaching, medium was added in order to block the trypsin action and cell suspension was centrifuged at 416 g for 5 min. The supernatant was discarded, the pellet suspended in culture medium, and cells were counted. For cell counting: 50 μL of cell suspension were added to 50 μL of Trypan Blue vital dye […], resuspended, placed in a Neubauer chamber (Hirschmann, Germany) and the viable cells were counted. For cell freezing, DMSO (5% v/v) was used as a cryopreservative to prevent the formation of crystals during the storage phase.
HaCaT cells were seeded onto 96-well tissue culture plates (Orange Scientific, Braine-l’Alleud, Belgium) at a 2 × 10^4 cells/well density and incubated at 37 °C in a 5% CO2 atmosphere for 24 h. […] In this last step, the absorbance was measured at 540 nm. […]

Another data set is described as follows: Stability in pH buffers. It is filed as physicochemical. The settings on record: pH buffers 2-8, 21 days, room temperature, 200 µM. The method, then:
All the solutions were prepared following Portuguese Pharmacopeia 9.0 specifications (F.P. (VIII) 2008). A solution at 10 mM in DMSO of each compound was prepared. One hundred microliters of antioxidant solution were diluted to 5 mL of the different buffered pH solutions, prepared in triplicate. Their absorbance measured by UV/Vis spectrophotometry in the wavelength range between 200 and 500 nm at time intervals of 0, 1, and 2 h and 1, 8, 15, and 21 d at room temperature. Each pH buffer solution was used as a compensation solution.

A further data set has as its system hyaluronidase. On the procedure:
The methods described by Ndlovu et al. and Zhou et al. were applied for the hyaluronidase inhibition assay. Into 2 mL test tubes was placed: 50 μL of calcium chloride (12.5 mM), 50 μL of test samples or sodium aurothiomalate diluted in 0.1 M acetate buffer; pH 3.5 (with concentrations ranging between 9.4 and 150 μM), and 25 μL hyaluronidase (0.5 mg/mL). The tubes were incubated in a water bath (37 °C; 20 min) after which 50 μL of the substrate hyaluronic acid (0.25 mg/mL in 0.1 M acetate buffer; pH 3.5) was added and the tubes incubated for further 40 min. Twenty-five microliters of KBO2 • 4 H2O (0.8 M) was added to all tubes which were placed in a water bath (100 °C) for 3 min, left to cool to room temperature, and 800 μL of DMAB (4 g DMAB in 40 mL acetic acid and 5 mL 10 N HCl) was added. The tubes were then incubated for 20 min and the contents transferred to respective wells in a 96-well plate. Absorbance was detected at 585 nm in a Bio-Rad Model 680 Microplate Reader (Bio-Rad Laboratories, Inc., Hercules, CA, USA). Percentage of hyaluronidase inhibition was calculated as:(3) % hyaluronidase inhibition =Abscontrol−Abssample/Abscontrol×100 where Abscontrol is the absorbance of buffer + hyaluronidase; Abssample is the absorbance of buffer + hyaluronidase + sample/standard.

A further data set concerns HaCaT cell. Further details: method as in doi:10.1016/j.arabjc.2017.01.006, PMID 31167479. The following applies: cited from earlier work.
A short description of data set [2]: Metal-chelating effect by UV/Vis, FeCl3. The settings on record: methanolic solution. It is filed as physicochemical. The method, then: as §1
The nature of data set [3]: Metal-chelating effect by UV/Vis, CuCl2. It is filed as physicochemical. The settings on record: methanolic solution. On the procedure:
as §1

A short description of data set [4]: Solubility in ethanol 70%. It is filed as physicochemical.

As to `O=C1O[C@H]([C@@H](O)CO)C(O)=C1O` [Ascorbic Acid, Ascorbic acid, reference compound], the IC50 in the data set “DPPH reduction assay” is 40 ± 0.8 µM.

Regarding `O=c1c2ccccc2oc2ccc(O)c(O)c12` [Compound 1, 1,2-dihydroxy-9H-xanthen-9-one], the “Collagenase % Inhibition (150 µM)” value with collagenase is on record as 35.77 ± 1.82 ^a %. Also, in data set [1], the “capacity to absorb UV radiation” value is reported as “high absorbance in the UVB range”. Besides, the IC50 in the data set “DPPH reduction assay” was 28.4 ± 0.2 µM. Further, in the data set with HaCaT cells (12.5-200 µM, with and without UVA irradiation, NRU), the “cytotoxicity to HaCaT cells” value is “not cytotoxic”. Moreover, the phototoxicity entry in the data set on HaCaT cells (up to 200 µM, HaCaT NRU assay) is given as “nonphototoxic”. In “Stability in pH buffers”, the pH stability result was “more stable in the pH range that is closest to the pH of the skin”. Further, the “Hyaluronidase % Inhibition (150 μM)” value with hyaluronidase is listed as “n.a. (Not active (0% inhibition))”. Further, the “decrease in HaCaT cell viability in the neutral red assay” value in the data set on HaCaT cell is 83%. In the data set with HaCaT cell (up to 50 µM, MTT, neutral red, Alamar Blue, Trypan Blue assays), the cytotoxic effect result is recorded as “did not promote a significant cytotoxic effect”. Moreover, the “change of UV/Vis spectrum on sequential additions of FeCl3” value (from here on “change of UV/Vis spectrum … of FeCl3”) in data set [2] was “bathochromic shifts”. Moreover, the “change of UV/Vis spectrum on sequential additions of CuCl2” value (“change of UV/Vis spectrum … of CuCl2” for short) in [3] is reported as “bathochromic shifts”.

`Cc1cc(O)c(O)c2oc3ccccc3c(=O)c12` [Compound 2, 3,4-dihydroxy-1-methyl-9H-xanthen-9-one]: the “Collagenase % Inhibition (150 µM)” value in the data set on collagenase is listed as 26.83 ± 1.45 ^b %. In addition, the “capacity to absorb UV radiation” value in data set [1] is recorded as “high absorbance in the UVB range”. The IC50 in the data set “DPPH reduction assay” is 31.2 ± 4.8 µM. Also, the pH stability entry in “Stability in pH buffers” was “a degradation of the compound for the range of pH tested overtime is observed”. In the data set with hyaluronidase, the “Hyaluronidase % Inhibition (150 μM)” value is “n.a. (Not active (0% inhibition))”. Moreover, the “change of UV/Vis spectrum … of FeCl3” value in data set [2] was “bathochromic shifts were observed”. Also, the “change of UV/Vis spectrum … of CuCl2” value in data set [3] is on record as “no effect was observed”.

In the case of `Cc1cc(O)c(O)c2oc3cc(O)ccc3c(=O)c12` [Compound 3, 3,4,6-trihydroxy-1-methyl-9H-xanthen-9-one], the “capacity to absorb UV radiation” value in data set [1] is reported as “high absorbance in the UVB range”. The IC50 in the data set “DPPH reduction assay” is 47.3 ± 0.4 µM. In addition, the “Hyaluronidase % Inhibition (150 μM)” value in the data set with hyaluronidase was “n.a. (Not active (0% inhibition))”. In addition, the “change of UV/Vis spectrum … of FeCl3” value in data set [2] is “bathochromic shifts were observed”. In [3], the “change of UV/Vis spectrum … of CuCl2” value is given as “no effect was observed”.

In the case of `COc1cc(O)c2c(=O)c3ccccc3oc2c1O` [Compound 4, 1,4-dihydroxy-3-methoxy-9H-xanthen-9-one], the maximum reduction activity result in the data set “DPPH reduction assay” (DPPH, IC50 not determinable, probably due to solubility issues) was “lower than 50%”. Also, the solubility result in data set [4] is reported as “low solubility”.
